Several values for one entry are separate records, joined by “and”; a condition that tells them apart may be missing. Identical values can stand only once. Entries after “also recorded” stand apart in the source; their conditions may differ.
Experiments:
[1] = Ex vivo measurements of radioactivity in rat brain and blood 100 min after i.v. injection
Experimental: Other experimental parameters that governed this study are listed in Supporting Information, Table S1. […] The rats were sacrificed via thoracotomy 100 min after radioligand injection. Anticoagulated blood was drawn from the myocardium followed by decapitation and harvesting of the brain. Each brain was removed, weighed, and immediately subjected to radio analysis after counting its concomitant radioactivity. Whole blood samples were removed and centrifuged to separate the plasma. Whole blood (300 µL each) and plasma samples (300 µL each) were also quantified for radioactivity in an automatic γ-counter (model 2480 Wizard 2; Perkin-Elmer) with an electronic window set at 360–1800 keV (counting efficiency, 51.84%). Briefly, plasma samples (~ 450 µL) were deproteinated with acetonitrile treatment (720 µL). The radioactivity of various plasma and brain tissues were counted in the γ-counter. Brain tissues were then homogenized in acetonitrile (1.0 mL) using a handheld tissue Tearor (model 985-370; BioSpec Products Inc; Bartlesville, OK), followed by a second homogenization in water (1.0 mL). The homogenates were counted in the γ-counter to calculate the percentage recovery of radioactivity in the acetonitrile extracts. Corrections of all tissue assays for physical decay were made with a half-life of 20.385 min. The homogenates were then centrifuged at 10,000g for 2 min. The clear supernatants were injected onto the HPLC column through nylon filters. For each sample, radioactivity in the resulting precipitate was used to calculate the percent recovery of activity into the acetonitrile supernatant.

[2] = Plasma free fraction by ultrafiltration, rat plasma; assay type: in vitro ADME; settings: fresh rat plasma, read-out: rat plasma free fraction (fP)
Experimental: (§1) In vitro stability was calculated by dividing the relative composition of the blood or brain homogenate determined with radio-HPLC by the initial radiochemical purity of the radioligand. […] The mixture was incubated at room temperature for 10 min and then processed exactly as described previously. The ultrafiltration components that contained high radioactivity were allowed time for radioactivity decay to within the optimal range of the γ-counter before they were counted again.

[3] = Plasma free fraction by ultrafiltration, pooled human standard plasma; assay type: in vitro ADME
Experimental: as §1

[4] = PET imaging and arterial plasma radiometabolite analysis in non-transduced healthy monkey; assay type: in vivo, rhesus monkey
Experimental: (§2) All PET imaging studies were performed with a Mediso LFER 150 preclinical scanner (nanoScan PET/CT). Brain and brain region radioactivity uptake was expressed by standardized uptake value (SUV) which normalizes for injected radioactivity and monkey body weight, as follows: SUV = [(% injected dose per g tissue) × body weight in g]/100.
(§3) Two male rhesus monkeys (macaca mulatta; 10.0 and 8.6 kg) underwent PET scanning. Each monkey was initially immobilized with ketamine (10 mg/kg, i.m.) and then maintained under anesthesia with 1.5% isoflurane. For each monkey, a baseline scan was performed for 120 min. […] Electrocardiogram, body temperature, heart, and respiration rates were monitored throughout the scans.
(§4) Total radioactivity concentrations in sampled arterial whole blood and plasma were measured in a γ-counter throughout the 90-min scanning period.
(§5) PET images were reconstructed using Fourier rebinding plus two-dimensional filtered back-projection with attenuation and scatter correction. Images were co-registered to a standardized monkey MRI template using the FMRIB Software Library (FSL; Oxford, UK). Thirty-four predefined brain regions of interest from the template were applied to the co-registered PET image to obtain regional, decay-corrected, time-activity curves.

PSAM^4-GlyR [5] = experiment: PET imaging and arterial plasma radiometabolite analysis in monkey transduced with PSAM^4-GlyR in the left amygdala; assay type: in vivo, rhesus monkey
Experimental: All studies were conducted in accordance with “Animal Research: Reporting of In Vivo Experiments” guidelines as well as Guidelines for the Care and Use of Laboratory Animals, 8th Edition, and were approved by the National Institute of Mental Health Animal Care and Use Committee. A lentivirus carrying an PSAM^4 expressed under a human synapsin promoter (Lenti-hSyn-PSAM^4-GlyR) was injected into the left amygdala of a single rhesus macaque (11-year-old male). 14 × 20 μL of virus was injected at 1.0 μL/min speed. The virus titer was measured at 1 × 10^9 i.u./mL. The surgery was performed under aseptic conditions in a fully equipped operating suite.
as §2, §3, §4, §5

PSAM^4-GlyR [6] = molecular target: PSAM^4-GlyR (Homo sapiens, UniProt P23415+P36544, L131G/Q139L/Y217F); parameters: expressed in transfected cells; method as in PMID 30872534, PMID 24556591, PMID 36279419; settings: read-out: PSAM^4-GlyR (Ki); in vitro binding assay, literature; cited from earlier work
[7] = In vitro stability in rat brain homogenate, whole blood and plasma; assay type: in vitro ADME
Experimental: as §1
Five milliliters of anticoagulated blood (STD-A) and brain (1.8 g) were harvested from a wild-type rat (~ 450 g) and used in the in vitro assays. The brains were immediately weighed and homogenized with twice their weights (3.6 mL) of ice cold 0.9% NaCl solution. Plasmas were separated from whole blood via centrifugation. […] Following incubation, aliquots (450 µL) were removed for radio-analysis and processed as detailed above for radio-HPLC analysis.
Anticoagulated blood (STD-A; 5 mL) and brain (1.8 g) were harvested from a wild-type rat (~ 450 g) and used for the in vitro assays. The brains were immediately weighed and homogenized with twice their weights (3.6 mL) of ice-cold 0.9% saline. Plasma was separated from whole blood via centrifugation. […] Aliquots (450 µL) were then removed for radio analysis and processed as detailed above for radio-HPLC analysis.

[8] = tested on: efflux transporters (P-gp and BCRP); experiment: PET imaging in wild-type and dual efflux transporter knockout mice; assay type: in vivo, mouse
Experimental: as §2
Radioligand was injected intravenously via a tail vein catheter followed by PET imaging for 90 min. Whole brain uptake in SUV was compared between wild type and knockout mice.

[9] = Plasma free fraction, monkey plasma; assay type: in vitro ADME, rhesus monkey; settings: baseline
Experimental: as §1

[10] = Rat-3, blocked with uPSEM792, 100 min
[11] = Rat-3, blocked with uPSEM792 i.v. 15 min before radioligand, 100 min
[12] = baseline rats (Rat-1, Rat-2), 100 min
[13] = baseline rats (Rat-1, Rat-2), 100 min after injection
[14] = rat, ex vivo, 100 min after i.v. injection, HPLC
[15] = non-transduced healthy monkey, i.v., PET
[16] = in vitro incubation at 37 °C, rat

PSAM^4-GlyR (Homo sapiens, UniProt P23415+P36544, L131G/Q139L/Y217F), sequence (P36544+P23415 fused P36544:L131G/P36544:Q139L/P36544:Y217F): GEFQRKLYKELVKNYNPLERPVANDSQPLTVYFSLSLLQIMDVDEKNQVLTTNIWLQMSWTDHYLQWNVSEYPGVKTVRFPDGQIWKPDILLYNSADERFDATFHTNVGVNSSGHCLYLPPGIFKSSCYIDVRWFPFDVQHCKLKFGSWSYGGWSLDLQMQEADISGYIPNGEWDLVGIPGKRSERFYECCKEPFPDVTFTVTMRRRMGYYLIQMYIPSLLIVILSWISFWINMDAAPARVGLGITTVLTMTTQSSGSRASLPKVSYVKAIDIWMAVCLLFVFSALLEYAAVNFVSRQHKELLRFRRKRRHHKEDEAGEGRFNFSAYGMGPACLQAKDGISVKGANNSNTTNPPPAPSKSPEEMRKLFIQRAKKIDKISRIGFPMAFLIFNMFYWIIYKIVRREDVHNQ

Structure (SMILES): [11CH3]n1c(=O)cnc2cc3c(cc21)C1CNCC3C1 (centres unmarked) [[^11C]uPSEM792]
- Ex vivo brain [1, 10]: 0.72 nM
- Ex vivo brain (SUV) [1, 10]: 0.401 SUV
- Ex vivo plasma parent (SUV) [1, 10]: 0.064 SUV
- Ex vivo whole blood (SUV) [1, 10]: 0.163 SUV
- HPLC Composition (%), ex vivo brain [1, 11]: 68.3%
- HPLC Composition (%), ex vivo plasma [1, 11]: 37.1%
- Ex vivo brain [1, 12]: 0.68 nM and 0.83 nM
- Ex vivo brain (SUV) [1, 12]: 0.407 SUV and 0.468 SUV
- Ex vivo plasma parent (SUV) [1, 12]: 0.063 SUV and 0.064 SUV
- Ex vivo whole blood (SUV) [1, 12]: 0.141 SUV and 0.163 SUV
- HPLC Composition (%), ex vivo brain [1, 13]: 78.3% and 75.6%
- HPLC Composition (%), ex vivo plasma [1, 13]: 43.0% and 37.9%
- total radioactivity concentration in rat brain ([1]; ex vivo, 100 min after i.v. injection): ~ 0.4 SUV
- Kp at 100 min ([1]; male, brain and plasma, intravenous, rat, 100 min, read-out: fold lower concentration of unchanged radioligand in plasma than in brain): 6.7
- concentration of unchanged radioligand in plasma ([1]; rat, 100 min, n = 3): 0.064 ± 0.001 SUV
- unchanged radioligand as share of radioactivity in brain [1, 14]: 75.6%
- unchanged radioligand fraction of all radioactivity in plasma [1, 14]: 37.9%
- fraction unbound at 10 min, 2.6 MBq/mL [2]: 0.898
- fraction unbound at 10 min, 2.6 MBq/mL [3]: 0.876
- time at which radiometabolites represented half of the radioactivity in plasma ([4]; male, rhesus monkey, in vivo): 78 min
- unchanged radioligand peak in plasma radiochromatogram ([4]; male, rhesus monkey, in vivo, 120 min): 29%
- peak of whole brain time-activity curve [4, 15]: 0.8 SUV and ~ 0.8 SUV
- plateau of whole brain time-activity curve [4, 15]: about 0.65 SUV
- difference in uptake of radioactivity between left (PSAM^4-GlyR) and right amygdala (PSAM^4-GlyR [5]; PSAM^4-GlyR monkey, PET): No significant difference
- evidence of PSAM^4-GlyR specific binding in left amygdala (PSAM^4-GlyR [5]; PSAM^4-GlyR monkey, PET, compartmental modeling): do not reveal any evidence of specific binding; also recorded: no evidence was obtained for PSAM^4-GlyR specific binding
- time at which radiometabolites accounted for 50% of radioactivity in plasma (PSAM^4-GlyR [5]; male, rhesus monkey, in vivo): 30 min
- peak whole brain radioactivity uptake (PSAM^4-GlyR [5]; monkey transduced in the left amygdala with PSAM^4-GlyR, i.v., PET): ~ 0.8 SUV
- Ki (PSAM^4-GlyR [6]): 0.7 nM
- in vitro stability in homogenized non-perfused rat brain ([7]; 30 min at 37 °C): 94%
- in vitro stability in rat plasma ([7]; 30 min at 37 °C): 85.4%
- in vitro stability in rat whole blood ([7]; 30 min at 37 °C): 83.8%
- HPLC Composition (%), in vitro fresh rat brain ([7]; in vitro incubation at 37 °C): 92%
- HPLC Composition (%), in vitro plasma [7, 16]: 83%
- HPLC Composition (%), in vitro whole blood [7, 16]: 82%
- substrate for efflux transporters in vivo ([8]; dual P-gp and BCRP knockout vs wild-type mice): substrate for efflux transporters in vivo
- early peak brain radioactivity uptake ([8]; dual efflux transporter (P-gp and BCRP) knockout mice, i.v.): ~ 0.7 SUV
- fP (%) ([9]; PSAM^4-GlyR monkey): 89.42%
- fP (%) ([9]; non-transduced healthy monkey): 89.29%

Source: publication PMC10803328 (Scientific Reports, 2024)
